Measurements taken from paper PMC12356538, “Targeting the SARS-CoV‑2 RNA Translation Initiation Element SL1 by Molecules of Low Molecular Weight” (Journal of the American Chemical Society, 2025).
Values joined by “and” are separate entries in the source; they are usually repeats but may differ in a detail not shown here. Identical values can stand only once. “Also recorded” adds a separate entry of the source. Like-named read-outs stand apart in the source and are kept apart here.

Legend:
[1] = test system: β-Globin-Nanoluciferase mRNA; assay: Cell-free translation assay in rabbit reticulocyte lysate, Nanoluciferase readout; type: biochemical; settings: 0.2 μM mRNA, 2 μM compound
SL1 wt RNA = assay: NMR-based KD estimation, ligand-detected 1D-1H titration; type: binding, SARS-CoV-2
[2] = test system: SL1 Δbulge-Nanoluciferase mRNA; type: biochemical, SARS-CoV-2
SL1 Δbulge RNA = type: binding, SARS-CoV-2
[3] = test system: SL1 (wt)-Nanoluciferase mRNA; type: biochemical, SARS-CoV-2
[4] = test system: SL1 RNA labeled with 2AP at position A27; assay: 2-Aminopurine fluorescence binding assay; parameters: species or system SARS-CoV-2; settings: 0.5 μM 2AP-SL1, compound 0-400 μM, 25 °C, pH 6.2
SL1 RNA = assay: RNA-detected NMR binding site mapping (2D-1H,1H-TOCSY and 1D-1H); parameters: species or system SARS-CoV-2; settings: for 1H,1H CSPs [ppm] C16H5-H6 / 1H,1H CSPs [ppm] C19H5-H6 / 1H,1H CSPs [ppm] C20H5-H6 / 1H,1H CSPs [ppm] C21H5-H6 / 1H,1H CSPs [ppm] C28H5-H6 / 1H,1H CSPs [ppm] C33H5-H6 / 1H,1H CSPs [ppm] C34H5-H6 / 1H,1H CSPs [ppm] U9H5-H6 / 1H,1H CSPs [ppm] U10H5-H6 / 1H,1H CSPs [ppm] U11H5-H6 / 1H,1H CSPs [ppm] U13H5-H6 / 1H,1H CSPs [ppm] U17H5-H6 / 1H,1H CSPs [ppm] U18H5-H6 / 1H,1H CSPs [ppm] U25H5-H6 / 1H,1H CSPs [ppm] C15H5-H6 / 1H,1H CSPs [ppm] C32H5-H6: 2D TOCSY, RNA 150 μM, compound 1 mM, 298 K; for 1H CSPs [ppm] A12H2 / 1H CSPs [ppm] A29H2: RNA-detected 1D-1H
[5] = pH 6.2
[6] = test system: SARS-CoV-2 SL1 RNA (SL1 wt); type: binding; settings: for wLOGSY factor / T2 reduction [%] / CSP [Hz]: 10 μM SL1 wt, 200 μM ligand; for wLOGSY factor / T2 reduction [%]: pH 6.2; for T2 reduction [%]: CPMG 100 vs 5 ms; for Rank: FBS ranking from summed ranks of CSP, wLOGSY and T2 results; for Rank / Normalized FBS score / 1 - normalized FBS score / FBS score: SL1 wt; for 1 - normalized FBS score: 0 lowest, 1 highest score; for FBS score: radar chart values; for CSP [Hz]: ligand 1H CSP, [RNA]:[ligand] 1:20, pH 6.2
[7] = Suppl. Table 7, ligand constant at 100, SL1 wt RNA concentration 0-250, read-out: KDest
[8] = ligand 100 μM, SL1 RNA 0 to 200 or 250 μM, 298 K, 600 MHz, pH 6.2, read-out: KD est

## COc1ccc2nc(NC(=O)CN(C)C)sc2c1 [A.2]
[1]
  effect on translation of β-globin mRNA, in words: increased translation efficiency; also recorded: boost
SL1 wt RNA; [7]
  Kd: 144 µM
SL1 wt RNA; [8]
  Kd: 144 ± 31 µM
[2]
  effect on translation of SL1 Δbulge mRNA, in words: increased translation efficiency; also recorded: about half as pronounced as that for SL1 wt
SL1 Δbulge RNA
  CSP [Hz]: 5.52 Hz
  Normalized abs. CSP SL1 wt - CSP SL1 Δbulge (normalized selectivity score): 1.00
  Rank: 5
  T2 reduction [%]: 67.46%
  abs. CSP SL1 wt - CSP SL1 Δbulge: 6.71
  wLOGSY factor: 0.00
[3]
  Normalized inhibition rate (normalized activity score): 0.73
  SL1 wt inhibition rate [%]: 36.23%
  effect on translation of SL1 wt mRNA, in words: significant and selective inhibition; also recorded: highest inhibition efficiency
  time-resolved SL1-driven translation, in words: more subtle temporal effects
[4]
  affinity trend compared to lead A: increased affinity
SL1 RNA
  binding site / selectivity for the bulge from CSP and LB mapping, in words: bound the bulge less selectively
  1H,1H CSPs [ppm] C16H5-H6: 0.0166 ppm
  1H,1H CSPs [ppm] C19H5-H6: 0.0190 ppm
  1H,1H CSPs [ppm] C20H5-H6: 0.0143 ppm
  1H,1H CSPs [ppm] C21H5-H6: 0.0230 ppm
  1H,1H CSPs [ppm] C28H5-H6: 0.0813 ppm
  1H,1H CSPs [ppm] C33H5-H6: 0.0085 ppm
  1H,1H CSPs [ppm] C34H5-H6: 0.0081 ppm
  1H,1H CSPs [ppm] U9H5-H6: 0.0247 ppm
  1H,1H CSPs [ppm] U10H5-H6: 0.0231 ppm
  1H,1H CSPs [ppm] U11H5-H6: 0.0462 ppm
  1H,1H CSPs [ppm] U13H5-H6: 0.0110 ppm
  1H,1H CSPs [ppm] U17H5-H6: 0.0143 ppm
  1H,1H CSPs [ppm] U18H5-H6: 0.0071 ppm
  1H,1H CSPs [ppm] U25H5-H6: 0.0361 ppm
  1H CSPs [ppm] A12H2: 0.1420 ppm
  1H CSPs [ppm] A29H2: 0.0190 ppm
[5]
  solubility, in words: increased solubility
[6]
  wLOGSY factor: 0.72
  T2 reduction [%]: 79.26%
  Rank: 30
  Normalized FBS score: 0.81
  1 - normalized FBS score: 0.19
  FBS score: 30
  CSP [Hz]: 12.23 Hz

## CC(=O)c1ccc(NC(=O)CN2CCCC2)cc1 [B]
SL1 wt RNA; [7]
  Kd: 150 µM
SL1 wt RNA; [8]
  Kd: 150 ± 46 µM
SL1 RNA
  1H,1H CSPs [ppm] C15H5-H6: 0.0208 ppm
  1H,1H CSPs [ppm] C16H5-H6: 0.0120 ppm
  1H,1H CSPs [ppm] C19H5-H6: 0.0092 ppm
  1H,1H CSPs [ppm] C20H5-H6: 0.0030 ppm
  1H,1H CSPs [ppm] C21H5-H6: 0.0058 ppm
  1H,1H CSPs [ppm] C28H5-H6: 0.0263 ppm
  1H,1H CSPs [ppm] C32H5-H6: 0.0336 ppm
  1H,1H CSPs [ppm] C33H5-H6: 0.0110 ppm
  1H,1H CSPs [ppm] C34H5-H6: 0.0021 ppm
  1H,1H CSPs [ppm] U9H5-H6: 0.0063 ppm
  1H,1H CSPs [ppm] U10H5-H6: 0.0122 ppm
  1H,1H CSPs [ppm] U11H5-H6: 0.0220 ppm
  1H,1H CSPs [ppm] U13H5-H6: 0.0256 ppm
  1H,1H CSPs [ppm] U17H5-H6: 0.0061 ppm
  1H,1H CSPs [ppm] U18H5-H6: 0.0064 ppm
  1H,1H CSPs [ppm] U25H5-H6: 0.0085 ppm
[5]
  solubility, in words: precipitation

## CNC(=O)Nc1nc2c(O)cc(O)cc2s1 [A.13]
[1]; relative to untreated control
  inhibition rate: ~10%
SL1 wt RNA; [7]
  Kd: 312 µM
[2]
  inhibition rate: ~0.5%
SL1 Δbulge RNA
  FBS result (CSP, wLOGSY, T2 reduction) in words: severe line broadening; signal disappearance; also recorded: complete loss of ligand peaks
[3]
  Normalized inhibition rate (normalized activity score): 1.00
  SL1 wt inhibition rate [%]: 49.50% and ~50%
  effect on translation of SL1 wt mRNA, in words: significant and selective inhibition; also recorded: highest inhibition efficiency; also recorded: greatest translation inhibition
  time-resolved SL1-driven translation, in words: most pronounced delay and suppression
[4]
  affinity trend compared to lead A: increased affinity
SL1 RNA
  1H,1H CSPs [ppm] C15H5-H6: 0.0030 ppm
  1H,1H CSPs [ppm] C16H5-H6: 0.0032 ppm
  1H,1H CSPs [ppm] C19H5-H6: 0.0022 ppm
  1H,1H CSPs [ppm] C20H5-H6: 0.0022 ppm
  1H,1H CSPs [ppm] C21H5-H6: 0.0045 ppm
  1H,1H CSPs [ppm] C28H5-H6: 0.0278 ppm
  1H,1H CSPs [ppm] C32H5-H6: 0.0082 ppm
  1H,1H CSPs [ppm] C33H5-H6: 0.0032 ppm
  1H,1H CSPs [ppm] C34H5-H6: 0.0087 ppm
  1H,1H CSPs [ppm] U9H5-H6: 0.0067 ppm
  1H,1H CSPs [ppm] U10H5-H6: 0.0112 ppm
  1H,1H CSPs [ppm] U11H5-H6: 0.0702 ppm
  1H,1H CSPs [ppm] U13H5-H6: 0.0209 ppm
  1H,1H CSPs [ppm] U17H5-H6: 0.0051 ppm
  1H,1H CSPs [ppm] U18H5-H6: 0.0022 ppm
  1H,1H CSPs [ppm] U25H5-H6: 0.0020 ppm
  1H CSPs [ppm] A12H2: 0.0630 ppm
  1H CSPs [ppm] A29H2: 0.0190 ppm
[6]
  wLOGSY factor: 0.33
  T2 reduction [%]: 100.00%
  Rank: 25
  Normalized FBS score: 0.68
  1 - normalized FBS score: 0.32
  FBS score: 25
  CSP [Hz]: 4.11 Hz

## CNC(=O)Nc1nc2ccc(OC)cc2s1 [A]
[1]
  effect on translation of β-globin mRNA, in words: increased translation efficiency
SL1 wt RNA; [7]
  Kd: 136 µM
SL1 wt RNA; [8]
  Kd: 136 ± 34 µM
[2]
  effect on translation of SL1 Δbulge mRNA, in words: increased translation efficiency
SL1 Δbulge RNA
  CSP [Hz]: 0.00 Hz
  FBS result (CSP, wLOGSY, T2 reduction) in words: no effects
  Normalized abs. CSP SL1 wt - CSP SL1 Δbulge (normalized selectivity score): 0.59
  abs. CSP SL1 wt - CSP SL1 Δbulge: 3.96
[3]
  Normalized inhibition rate (normalized activity score): -0.03
  SL1 wt inhibition rate [%]: -1.66%
  time-resolved SL1-driven translation, in words: more subtle temporal effects
SL1 RNA
  binding site / selectivity for the bulge from CSP and LB mapping, in words: binds selectively to the bulge
  1H,1H CSPs [ppm] C15H5-H6: 0.0081 ppm
  1H,1H CSPs [ppm] C16H5-H6: 0.0050 ppm
  1H,1H CSPs [ppm] C19H5-H6: 0.0050 ppm
  1H,1H CSPs [ppm] C20H5-H6: 0.0050 ppm
  1H,1H CSPs [ppm] C21H5-H6: 0.0095 ppm
  1H,1H CSPs [ppm] C28H5-H6: 0.0502 ppm
  1H,1H CSPs [ppm] C32H5-H6: 0.0124 ppm
  1H,1H CSPs [ppm] C33H5-H6: 0.0042 ppm
  1H,1H CSPs [ppm] C34H5-H6: 0.0054 ppm
  1H,1H CSPs [ppm] U9H5-H6: 0.0117 ppm
  1H,1H CSPs [ppm] U10H5-H6: 0.0179 ppm
  1H,1H CSPs [ppm] U11H5-H6: 0.0824 ppm
  1H,1H CSPs [ppm] U13H5-H6: 0.0242 ppm
  1H,1H CSPs [ppm] U17H5-H6: 0.0100 ppm
  1H,1H CSPs [ppm] U18H5-H6: 0.0010 ppm
  1H,1H CSPs [ppm] U25H5-H6: 0.0160 ppm
  1H CSPs [ppm] A12H2: 0.0041 ppm
[5]
  solubility, in words: solubility issues
[6]
  wLOGSY factor: 0.78
  T2 reduction [%]: 66.95%
  Rank: 37
  Normalized FBS score: 1.00
  1 - normalized FBS score: 0.00
  FBS score: 37
  CSP [Hz]: 3.96 Hz
